# Laboratory results: patent US20130252816A1, “HERBICIDAL COMPOSITION AND USE THEREOF” (Syngenta Crop Protection LLC, priority 2010, published 2013)
# Key:
# Experiment in all cases: Example 2: alcohol ethoxylate adjuvants without glyphosate, visual % damage, tracksprayer 300 l/ha
# Type in all cases: in vivo
# Stellaria media = test system: Stellaria media
# Source text: (§1) The effect of different types of alcohol ethoxylate (branched—Genapol X-series, and unbranched—Genapol O-series, differing degrees of ethoxylation, see Table 3 below for more details), on unwanted vegetation (broadleaf weed and grass species), in the absence of glyphosate, was investigated and compared to untreated (water only) control weeds.
# (§2) Troughs (measuring 16 cm by 13 cm by 5 cm) were filled with local field soil. Seeds of Veronica persica, Stellaria media, Trifolium repens and Poa annua were sown 24 days before application of test samples. Plants were grown in the glasshouse at 18 to 20° C. and 60% relative humidity. Application of alcohol ethoxylate test samples was carried out using a tracksprayer, spraying at a rate of 300 l/ha. Plants were kept in glasshouse and visual assessment of the estimated percentage damage to the plant was carried out 1, 7, and 14 days from application.
# (§3) Damage was assessed as wilting, desiccation or any other kind of visual injury in comparison to the untreated control (water only).
# Trifolium repens = test system: Trifolium repens
# Source text: as §1, §2, §3
# Veronica persica = test system: Veronica persica
# Source text: as §1, §2, §3
# Poa annua = test system: Poa annua
# Source text: as §1, §2, §3
substance,measurement,setting,value
Oleyl alcohol polyglycol ether with 2 moles of ethoxylation [GenapolO020],mean % damage 1 daa Stellaria media,Stellaria media; adjuvant 1% w/v,0%
same,mean % damage 7 daa Stellaria media,Stellaria media; adjuvant 1% w/v,0%
same,mean % damage 14 daa Stellaria media,Stellaria media; adjuvant 1% w/v,0%
same,mean % damage 1 daa Stellaria media,Stellaria media; adjuvant 1.5% w/v,0%
same,mean % damage 7 daa Stellaria media,Stellaria media; adjuvant 1.5% w/v,0%
same,mean % damage 14 daa Stellaria media,Stellaria media; adjuvant 1.5% w/v,0%
same,mean % damage 1 daa Stellaria media,Stellaria media; adjuvant 2% w/v,0%
same,mean % damage 7 daa Stellaria media,Stellaria media; adjuvant 2% w/v,0%
same,mean % damage 14 daa Stellaria media,Stellaria media; adjuvant 2% w/v,0%
same,mean % damage 1 daa Stellaria media,Stellaria media; adjuvant 2.5% w/v,0%
same,mean % damage 7 daa Stellaria media,Stellaria media; adjuvant 2.5% w/v,5%
same,mean % damage 14 daa Stellaria media,Stellaria media; adjuvant 2.5% w/v,0%
same,mean % damage 1 daa Trifolium repens,Trifolium repens; adjuvant 1% w/v,0%
same,mean % damage 7 daa Trifolium repens,Trifolium repens; adjuvant 1% w/v,0%
same,mean % damage 14 daa Trifolium repens,Trifolium repens; adjuvant 1% w/v,0%
same,mean % damage 1 daa Trifolium repens,Trifolium repens; adjuvant 1.5% w/v,0%
same,mean % damage 7 daa Trifolium repens,Trifolium repens; adjuvant 1.5% w/v,0%
same,mean % damage 14 daa Trifolium repens,Trifolium repens; adjuvant 1.5% w/v,0%
same,mean % damage 1 daa Trifolium repens,Trifolium repens; adjuvant 2% w/v,0%
same,mean % damage 7 daa Trifolium repens,Trifolium repens; adjuvant 2% w/v,0%
same,mean % damage 14 daa Trifolium repens,Trifolium repens; adjuvant 2% w/v,0%
same,mean % damage 1 daa Trifolium repens,Trifolium repens; adjuvant 2.5% w/v,0%
same,mean % damage 7 daa Trifolium repens,Trifolium repens; adjuvant 2.5% w/v,10%
same,mean % damage 14 daa Trifolium repens,Trifolium repens; adjuvant 2.5% w/v,0%
same,mean % damage 1 daa Veronica persica,Veronica persica; adjuvant 1% w/v,0%
same,mean % damage 7 daa Veronica persica,Veronica persica; adjuvant 1% w/v,0%
same,mean % damage 14 daa Veronica persica,Veronica persica; adjuvant 1% w/v,0%
same,mean % damage 1 daa Veronica persica,Veronica persica; adjuvant 1.5% w/v,0%
same,mean % damage 7 daa Veronica persica,Veronica persica; adjuvant 1.5% w/v,0%
same,mean % damage 14 daa Veronica persica,Veronica persica; adjuvant 1.5% w/v,0%
same,mean % damage 1 daa Veronica persica,Veronica persica; adjuvant 2% w/v,0%
same,mean % damage 7 daa Veronica persica,Veronica persica; adjuvant 2% w/v,0%
same,mean % damage 14 daa Veronica persica,Veronica persica; adjuvant 2% w/v,0%
same,mean % damage 1 daa Veronica persica,Veronica persica; adjuvant 2.5% w/v,0%
same,mean % damage 7 daa Veronica persica,Veronica persica; adjuvant 2.5% w/v,0%
same,mean % damage 14 daa Veronica persica,Veronica persica; adjuvant 2.5% w/v,0%
same,mean % damage 1 daa Poa annua,Poa annua; adjuvant 1% w/v,0%
same,mean % damage 7 daa Poa annua,Poa annua; adjuvant 1% w/v,0%
same,mean % damage 14 daa Poa annua,Poa annua; adjuvant 1% w/v,0%
same,mean % damage 1 daa Poa annua,Poa annua; adjuvant 1.5% w/v,0%
same,mean % damage 7 daa Poa annua,Poa annua; adjuvant 1.5% w/v,0%
same,mean % damage 14 daa Poa annua,Poa annua; adjuvant 1.5% w/v,0%
same,mean % damage 1 daa Poa annua,Poa annua; adjuvant 2% w/v,0%
same,mean % damage 7 daa Poa annua,Poa annua; adjuvant 2% w/v,0%
same,mean % damage 14 daa Poa annua,Poa annua; adjuvant 2% w/v,0%
same,mean % damage 1 daa Poa annua,Poa annua; adjuvant 2.5% w/v,0%
same,mean % damage 7 daa Poa annua,Poa annua; adjuvant 2.5% w/v,0%
same,mean % damage 14 daa Poa annua,Poa annua; adjuvant 2.5% w/v,0%
